Data from US8222270B2 (Medicis Pharmaceutical Corporation, priority 2008, dated 2012).
Where “and” joins values, the source holds several entries; their conditions need not be identical. Equal entries are not always repeated.

Legend:
[1] = Stability of calibration standards in spent receiver fluid; format: physicochemical; settings: vs T = 0
[2] = Intravenous embryofetal development study; format: in vivo, rabbits
[3] = system: interleukin-1 antagonist, interferon-α, 2′5′-oligoadenylate synthetase; experiment: Biomarker response in 58 patients with AK treated 3 times per week for 16 weeks; format: in vivo, human; settings: 16 weeks of dosing
[4] = system: human monocytes/macrophages and keratinocytes; experiment: In vitro cytokine induction; format: cell-based
Excerpt: The panel of cytokines induced varied with the cell's tissue origin.

[5] = Repeat dose oral toxicity, 6 months; format: in vivo, monkeys; settings: dosed daily for 6 months
Protocol: The adverse effects observed for the high doses (10-30 mg/kg) in repeat dose oral toxicity studies in rats and monkeys could be related to exaggerated pharmacological effects of excessive cytokines induction and lymphoid stimulation: reduced body weight gains, anaemia, serum protein changes and death. […] An oral no-adverse-effect level of 3 mg/kg/day was determined in both rats and monkeys dosed daily for 6 months.

[6] = Physicochemical properties of the drug substance (solubility, pKa)
Protocol: Physicochemical Properties: • Physical Form: Crystalline solid that varies in colour from white to off-white or buff. […] It can be made soluble to the extent of at least 100 mg/mL in methanol (as a salt) upon the addition of a few drops of hydrochloric or acetic acid.

[7] = Repeat dose dermal toxicity studies; format: in vivo, rats
Protocol: A dose-related decrease in body weight of male rats was also observed. No systemic toxicity was found at doses up to 5 mg/kg three days per week for 4 weeks or at doses up to 2.5 mg/kg three days per week for 16 weeks.

[8] = 52-week dermal photoco-carcinogenicity study; format: in vivo, hairless mice; settings: 3×/week, 40 weeks, concurrent UV radiation
Excerpt: In a 52-week dermal photoco-carcinogenicity study, the median time to onset of skin tumor formation was decreased in hairless mice following chronic topical dosing (3×/week; 40 weeks of treatment followed by 12 weeks of observation) with concurrent exposure to UV radiation (5 days per week) with vehicle alone.
Vehicle cream enhanced UVR-induced skin tumour development.

[9] = Oral (gavage) carcinogenicity study, 24 months
[10] = Acute dermal toxicity under occlusion
[11] = Oral embryofetal development study; format: in vivo, rats
Protocol: Systemic embryofetal development studies were conducted in rats and rabbits.

[12] = parameters: species or system mice; settings: CD-1, mouse, in vivo, 2 years

## CC(C)Cn1cnc2c(N)nc3ccccc3c21 [imiquimod, 1-(2-methylpropyl)-1H-imidazo[4,5-c]quinolin-4-amine]
[1]; Standard 105.5 μg/ml, Epidermal sheet + placebo, Fridge
  48 h % recovered in Spent receiver fluid: 83.833%
[1]; Standard 105.5 μg/ml, Epidermal sheet + placebo, RT
  48 h % recovered in Spent receiver fluid: 84.515%
[1]; Standard 105.5 μg/ml, Epidermal sheet, 37° C.
  48 h % recovered in Spent receiver fluid: 91.501%
[1]; Standard 105.5 μg/ml, Epidermal sheet, Fridge
  48 h % recovered in Spent receiver fluid: 90.465%
[1]; Standard 105.5 μg/ml, Epidermal sheet, RT
  48 h % recovered in Spent receiver fluid: 92.089%
[1]; Standard 105.5 μg/ml, Full thickness + placebo, 37° C.
  48 h % recovered in Spent receiver fluid: 91.704%
[1]; Standard 105.5 μg/ml, Full thickness + placebo, Fridge
  48 h % recovered in Spent receiver fluid: 88.242%
[1]; Standard 105.5 μg/ml, Full thickness + placebo, RT
  48 h % recovered in Spent receiver fluid: 88.546%
[1]; Standard 105.5 μg/ml, Full thickness, 37° C.
  48 h % recovered in Spent receiver fluid: 92.278%
[1]; Standard 105.5 μg/ml, Full thickness, Fridge
  48 h % recovered in Spent receiver fluid: 90.545%
[1]; Standard 105.5 μg/ml, Full thickness, RT
  48 h % recovered in Spent receiver fluid: 92.275%
[1]; Standard […] μg/ml, Epidermal sheet + placebo, 37° C.
  48 h % recovered in Spent receiver fluid: 89.945%
[1]; Standard […] μg/ml, Epidermal sheet + placebo, Fridge
  48 h % recovered in Spent receiver fluid: 84.046%
[1]; Standard […] μg/ml, Epidermal sheet + placebo, RT
  48 h % recovered in Spent receiver fluid: 85.095%
[1]; Standard […] μg/ml, Epidermal sheet, 37° C.
  48 h % recovered in Spent receiver fluid: 97.099%
[1]; Standard […] μg/ml, Epidermal sheet, Fridge
  48 h % recovered in Spent receiver fluid: 93.180%
[1]; Standard […] μg/ml, Epidermal sheet, RT
  48 h % recovered in Spent receiver fluid: 94.971%
[1]; Standard […] μg/ml, Full thickness + placebo, 37° C.
  48 h % recovered in Spent receiver fluid: 90.798%
[1]; Standard […] μg/ml, Full thickness + placebo, Fridge
  48 h % recovered in Spent receiver fluid: 88.307%
[1]; Standard […] μg/ml, Full thickness + placebo, RT
  48 h % recovered in Spent receiver fluid: 86.897%
[1]; Standard […] μg/ml, Full thickness, 37° C.
  48 h % recovered in Spent receiver fluid: 97.826%
[1]; Standard […] μg/ml, Full thickness, Fridge
  48 h % recovered in Spent receiver fluid: 94.989%
[1]; Standard […] μg/ml, Full thickness, RT
  48 h % recovered in Spent receiver fluid: 93.522%
[2]; female, rabbit, in vivo
  Teratogenicity: not teratogenic
[2]; intravenous, gestational days 6-18
  Dose with no treatment related effects on embryofetal toxicity or teratogenicity: 2 mg/kg/day and 1 mg/kg/day
[3]
  2′5′-oligoadenylate synthetase, median concentration after multiple dosing vs single dose: approximately 3 fold
  Interferon-α, median concentration after multiple dosing vs single dose: ≤ 3 fold
  Interleukin-1 antagonist, median concentration after multiple dosing vs single dose: < 2 fold
[4]
  Release of interferon alpha (IFN-α) and other cytokines: induces the release
[5]
  Oral no-adverse-effect level: 3 mg/kg/day
[6]
  Solubility in fatty acids such as oleic acid and isostearic acid: Soluble
[6]; UV spectroscopy and pH-solubility
  pKa: ~7.5
[6]; except at extremely low pH
  Solubility in most common organic solvents and in aqueous systems: Practically insoluble
[6]; methanol, upon addition of a few drops of hydrochloric or acetic acid, read-out: Solubility in methanol (as a salt)
  solubility: ≥ 100 mg/mL
[7]; three days per week for 4 weeks
  Dose up to which no systemic toxicity was found: 5 mg/kg
[7]; three days per week for 16 weeks
  Dose up to which no systemic toxicity was found: 2.5 mg/kg
[8]
  Effect on tumor development beyond the vehicle effect: No additional effect on tumor development beyond the vehicle effect
[9]; 3 mg/kg 7×/week
  Exposure multiple, male and female rats: 29 ×MRHD
[9]; 4 mg/kg 2×/week
  Exposure multiple, male rats: 45 ×MRHD
[9]; 6 mg/kg 2×/week
  Exposure multiple, female rats: 57 ×MRHD based on AUC comparisons
[9]; 2×/week, 24 months
  Highest dose tested without treatment related tumors, female rats: 6 mg/kg
  Highest dose tested without treatment related tumors, male rats: 4 mg/kg
[9]; 7×/week, 24 months
  Highest dose tested without treatment related tumors, male and female rats: 3 mg/kg
[9]; two-year bioassay, up to 3 mg/kg orally per day
  Carcinogenic effect, male and female rats: no evidence of a carcinogenic effect
[10]; rabbit, in vivo
  Dermal lethal dose: greater than 5000 mg/kg
[10]; rabbit, in vivo, topical, 5000 mg/kg
  LD50: > 5000 mg/kg
[10]; unformulated, under occlusion, 5000 mg/kg
  Acute dermal toxicity: did not reveal any toxic effects
[11]; female, rat, in vivo
  Exposure multiple at dose with fetal effects: 427 ×MRHD based on AUC comparisons
  Exposure multiple at no-effect dose: 83 ×MRBD based on AUC comparisons
  Teratogenicity: not teratogenic
[11]; female, rat, in vivo, 20 mg/kg/day
  High maternally toxic dose with reduced pup weights and delayed ossification: 28 times human dose on a mg/m^2 basis
[11]; oral, gestational days 6-15
  Dose at which fetal effects were noted (in the presence of maternal toxicity): 20 mg/kg/day
  Dose with no treatment related effects on embryofetal toxicity or teratogenicity: 5 mg/kg/day
[12]; female
  Carcinogenic effect, female mice: no evidence of a carcinogenic effect
[12]; male
  Liver tumours, male mice at the highest dose vs unexposed controls: Liver tumours were increased
